In patent publication US20260078158A1, “COMPOSITIONS COMPRISING CXCL10-DERIVED PEPTIDES AND METHODS OF USE THEREOF” (priority 2022, published 2026):
Read-outs that look alike come from different tables or passages of the source.

Columns and labels:
[1] = system: Enterococcus faecalis; test: microbe, parasite or virus in culture; type: cell-based; details: Enterococcus faecalis (2 isolates)
[2] = system: Enterococcus faecium; test: microbe, parasite or virus in culture; type: cell-based; details: Enterococcus faecium (3 isolates)
[3] = system: Acinetobacter baumannii-calcoaceticus complex; test: microbe, parasite or virus in culture; type: cell-based; details: Acinetobacter spp. (5 isolates)
[4] = system: Escherichia coli; test: microbe, parasite or virus in culture; type: cell-based; details: Escherichia coli (5 isolates)
[5] = system: E. cloacae species complex; test: microbe, parasite or virus in culture; type: cell-based, Enterobacter cloacae; details: Enterobacter spp. (5 isolates)
[6] = system: Pseudomonas aeruginosa; test: microbe, parasite or virus in culture; type: cell-based; details: Pseudomonas aeruginosa (5 isolates)
[7] = system: Streptococcus pneumoniae; test: microbe, parasite or virus in culture; type: cell-based; details: Streptococcus pneumoniae (5 isolates)
[8] = system: Staphylococcus aureus; test: microbe, parasite or virus in culture; type: cell-based; details: relative to P194-acetate; Staphylococcus aureus (5 isolates)
[9] = system: Klebsiella pneumoniae; details: Klebsiella pneumoniae (5 isolates)

Row | Sequence | MIC50 fold change ([1]; relative to P194-acetate) | MIC50 fold change ([2]; relative to P194-acetate) | MIC50 fold change ([3]; relative to P194-acetate) | MIC50 fold change ([4]; relative to P194-acetate) | MIC50 fold change ([5]; relative to P194-acetate) | MIC50 fold change ([6]; relative to P194-acetate) | MIC50 fold change ([7]; relative to P194-acetate) | MIC50 fold change [8] | MIC50 fold change ([9]; relative to P194-acetate) | MIC50 fold change ([1]; relative to D8-acetate) | MIC50 fold change ([2]; relative to D8-acetate) | MIC50 fold change ([3]; relative to D8-acetate) | MIC50 fold change ([4]; relative to D8-acetate) | MIC50 fold change ([5]; relative to D8-acetate) | MIC50 fold change ([6]; relative to D8-acetate) | MIC50 fold change ([9]; relative to D8-acetate) | MIC50 fold change ([7]; relative to D8-acetate)
1 | RAVRCRCI [Peptide P194-T2A] | 4 | 2 | 0.5 | 0.5 | 0.5 | >2 | 2 | 2 | 2 | – | – | – | – | – | – | – | –
2 | RAVRCTCI [Peptide D8-T2A] | – | – | – | – | – | – | – | – | – | 2 | 2 | 2 | 2 | 1 | >2 | 2 | –
3 | RTARCTCI [Peptide D8-V3A] | – | – | – | – | – | – | – | – | – | >4 | 8 | 32 | 16 | >4 | >2 | >8 | –
4 | RTVACTCI [Peptide D8-R4A] | – | – | – | – | – | – | – | – | – | >4 | 8 | >32 | >16 | >4 | >2 | >8 | –
5 | RTVRATCI [Peptide D8-C5A] | – | – | – | – | – | – | – | – | – | >4 | >16 | >32 | >16 | >4 | >2 | >8 | –
6 | RTVRCACI [Peptide D8-T6A] | – | – | – | – | – | – | – | – | – | 1 | 1 | 2 | 1 | 0.5 | 2 | 2 | 1
7 | RTVRCTAI [Peptide D8-C7A] | – | – | – | – | – | – | – | – | – | >4 | 16 | >32 | >16 | >4 | >2 | >8 | –
8 | RTVRCTCA [Peptide D8-I8A] | – | – | – | – | – | – | – | – | – | 4 | 4 | 2 | 4 | 1 | 2 | 4 | –
